Test results reported in US7763619B2, “Compounds with 5-HT1A activity useful for treating disorders of the outer retina” (Alcon, Inc., priority 2000, dated 2010).
Structures can show the parent of a compound that is named as a salt.

What was measured:
Assay type in all cases: in vivo
[1] = test system: photo-oxidative induced retinopathy; assay: Rat photo-oxidative induced retinopathy model: retinal morphology
Method: (§1) Neuroprotective Effects in the Rat Photo-Oxidative Induced Retinopathy Model
(§2) Induction of Photochemical Lesion. Photochemical lesions were induced in dark adapted rats (24 hour) by exposure to (220 fc) blue light (half-amplitude bandpass=435-475 nm) for 6 hours. Animals were allowed to recover for 5 days in darkness prior to electrodiagnostic evaluation of retinal function. Rats were single housed in clear polycarbonate cages during this light exposure.
Assessment of Retinal Morphology. Ocular tissues were obtained from control and drug or vehicle dosed rats and fixed by immersion into a mixture of 2% paraformaldehyde and 2% glutaraldehyde. Fixed eyeballs were dehydrated in an ascending ethanol series, embedded in JB-4 plastic resin, and 1 to 1.5-micron thick sections were analyzed using a quantitative computer image analysis system attached to the microscope. Retinal layer thickness (retinal pigment epithelium, RPE; outer nuclear layer thickness, ONL; inner nuclear layer thickness, INL; and length of photoreceptor inner and outer segments, IS+OS) was measured.
(§3) Subjects and Dosing. Male Sprague Dawley rats were randomly assigned to drug and vehicle experimental groups. Control rats were housed in their home cage under normal cyclic light exposure. All rats were dosed 48, 24 and 0 hours prior to a 6-hour blue-light exposure. Dosing was as follows:
(§4) Five rats were used as controls. Retinal protection was assessed by analyzing the ERG response and measuring changes in retinal morphology.
2.) Buspirone: For DNA quantitation, six rats per treatment group were dosed IP with vehicle or buspirone (0.5 and 1 mg/kg) prior to light exposure. Retinas from seven normal rats were used as controls. To evaluate changes in retinal morphology, rats were dosed (IP) with either vehicle (N=8) or buspirone (1.0 mg/kg [N=9]). Six rats were used as controls. Retinal protection was assessed by quantitating changes in retinal DNA and measuring changes in retinal morphology.

[2] = test system: photo-oxidative induced retinopathy; assay: Rat photo-oxidative induced retinopathy model: electroretinogram (ERG)
[3] = test system: photo-oxidative induced retinopathy; assay: as above; remark: listed apart in the source
Method: as §1
The retinal protective effect of these 5-HT1A agonists were evaluated in our photo-oxidative induced retinopathy paradigm.
as §2
Electrodiagnostic Evaluation. The electroretinogram (ERG) was recorded from anesthetized rats after a 24-hour dark-adaptation period. Rats were anesthetized by IP injection with Ketamine-HCl (75 mg/Kg) and Xylazine (6 mg/Kg). Flash ERGs recorded from a platinum-iridium wire loop electrode positioned on the cornea were elicited by viewing a ganzfeld. Electrical responses to a series of light flashes increasing in intensity were digitized to analyze temporal characteristics of the waveform and response voltage-log intensity (VlogI) relationship. Changes in the ERG a-wave are associated with photoreceptor and retinal pigment epithelium damage while damage to the inner retina is reflected in changes in the ERG b-wave.
as §3, §4
3.) SR-57746A: Rats were dosed (IP) with vehicle (N=15) or SR-57746A (0.5 mg/kg [N=5] or 1 mg/kg [N=15]). Eleven rats were used as controls. The ERG was analyzed after a 5-day recovery period to assess retinal protection.

[4] = test system: photo-oxidative induced retinopathy; assay: Rat photo-oxidative induced retinopathy model: retinal DNA quantitation
Method: as §1, §2
Assessment of DNA Changes. Albino rats were euthanized by CO2 inhalation and individual retinas were frozen in separate tubes. Each retina had been sonicated in 0.8 ml (2.0 M NaCl, 50 mM NaPO4, pH 7.4, 2 mM EDTA) to yield a uniform homogenate, and stored frozen. Aliquots (0.1 ml) of each sample were diluted 10-fold with 2.0 M NaCl, 50 mM NaPO4. pH 7.4, 2 mM EDTA containing 1.1 μg/ml bisbenzimidazole (Hoechst 33258). A standard curve was constructed using calf thymus DNA from 0 to 25 μg/ml in the same buffer. Triplicate 0.2 ml aliquots of each retina sample and standard were pipetted into a 96 well plate for fluorescence measurements in the Cytofluor II. […]
2.) Buspirone: For DNA quantitation, six rats per treatment group were dosed IP with vehicle or buspirone (0.5 and 1 mg/kg) prior to light exposure. […] Retinal protection was assessed by quantitating changes in retinal DNA and measuring changes in retinal morphology.

[5] = test system: light-induced functional or morphological changes; assay: Light damage paradigms (comparison compound classes)
[6] = 0.5 mg/kg SC 48, 24 and 0 h before 6-h blue light, 5-day recovery
[7] = 1.0 mg/kg SC 48, 24 and 0 h before 6-h blue light, 5-day recovery

Question: How did the “Lesions versus vehicle dosed rats” value ([1]; 0.5 mg/kg SC, 3-week recovery) turn out when `CCCN(CCC)C1CCc2cccc(O)c2C1` (stereo not shown) [8-OH-DPAT, 8-hydroxy-2-(di-n-propylamino)tetralin] was run?
Answer: not significantly different than lesions measured in vehicle dosed rats

Question: And the ONL thickness reduction ([1]; 0.5 mg/kg SC, 3-week recovery)?
Answer: 53%

Question: And the “Photoreceptor segment length reduction” value ([1]; 0.5 mg/kg SC, 3-week recovery)?
Answer: 60%

Question: What about the RPE thickness reduction ([1]; 0.5 mg/kg SC, 3-week recovery) of the same compound?
Answer: 34%

Question: And the “ONL thickness compared to vehicle dosed rats” value ([1]; 1.0 mg/kg SC, 3-week recovery)?
Answer: 2.4 fold

Question: What about the “Photic lesions versus vehicle dosed rats” value ([1]; 1.0 mg/kg SC, 3-week recovery) of the same compound?
Answer: significantly different from vehicle dosed rats

Question: And the “Photoreceptor segment length compared to vehicle dosed rats” value ([1]; 1.0 mg/kg SC, 3-week recovery)?
Answer: 2.9 times

Question: And the “RPE thickness compared to vehicle dosed rats” value ([1]; 1.0 mg/kg SC, 3-week recovery)?
Answer: 1.9 times

Question: And the “Maximum a- and b-wave response amplitudes versus vehicle dosed rats” value [2, 6]?
Answer: not different than vehicle dosed rats

Question: And the “Maximum a- and b-wave response amplitudes, % of control amplitudes” value [2, 6]?
Answer: approximately 27%

Question: And the ERG reduction ([2]; 0.5 mg/kg SC, as restated with the morphometry)?
Answer: approximately 63%

Question: And the “Maximum a- and b-wave response amplitudes versus vehicle dosed rats” value [2, 7]?
Answer: significantly higher than responses measured in vehicle dosed rats

Question: And the “Maximum a-wave response amplitude, % of normal” value [2, 7]?
Answer: approximately 53%

Question: And the “Maximum b-wave response amplitude, % of normal” value [2, 7]?
Answer: ~61%

Question: And the “ERG response amplitudes, % of normal” value ([2]; 1.0 mg/kg SC, as restated with the morphometry)?
Answer: greater than 50%

Question: Which results are given for `FC(F)(F)c1cccc(C2=CCN(CCc3ccc4ccccc4c3)CC2)c1` [SR-57746A, xaliproden hydrochloride]?
Answer: Maximum a- and b-wave responses, % of controls ([3]; 0.5 mg/kg IP, 5-day recovery): 82%; Maximum a- and b-wave responses, % of normal ([3]; 1 mg/kg IP, 5-day recovery): 70%; Protection of retinal function ([3]; 0.5 and 1.0 mg/kg IP, light-exposed rats): Significant protection of retinal function

Question: For `O=C1CC2(CCCC2)CC(=O)N1CCCCN1CCN(c2ncccn2)CC1` [buspirone], which ONL thickness ([1]; 1 mg/kg IP, 4-week recovery) is on record?
Answer: 28.3 μ

Question: What about the “ONL thickness versus normal rats” value ([1]; 1 mg/kg IP, 4-week recovery) of the same compound?
Answer: no significant difference in ONL thickness

Question: And the “Retinal DNA levels versus vehicle” value ([4]; 0.1 mg/kg IP)?
Answer: No significant differences

Question: What about the “Retinal DNA levels versus vehicle and controls” value ([4]; 1 mg/kg IP) of the same compound?
Answer: significantly higher than measured in vehicle dosed rats, but not significantly different than controls

Question: Which “Effect in preventing light-induced functional or morphological changes” value [5] does the source give for `Fc1ccc(C(c2ccc(F)cc2)N2CCN(C/C=C/c3ccccc3)CC2)cc1` [flunarizine] here?
Answer: moderately effective

Question: `COCCOC(=O)C1=C(C)NC(C)=C(C(=O)OC(C)C)C1c1cccc([N+](=O)[O-])c1` (stereo not shown) [nimodipine] was tested. Which “Effect in preventing light-induced functional or morphological changes” value [5] did it give?
Answer: no effect

Question: `Cc1c(C)c2c(c(C)c1O)CC[C@@](C)(CCC[C@H](C)CCC[C@H](C)CCCC(C)C)O2` [α-tocopherol] was tested. Which “Effect in preventing light-induced functional or morphological changes” value [5] did it give?
Answer: ineffective
